Test results from patent US12116362B2, “Monocyclic compounds useful as GPR120 modulators” (Valo Health, Inc., priority 2016, dated 2024).

How the values were obtained:
human GPR120 [1] = biological target: T1, human GPR120 (Homo sapiens, UniProt Q5NUL3); test: GPR120 β-Arrestin Recruitment Assay (PathHunter, CHO-K1 cells); format: cell-based; conditions: pEC50=−log(EC50) from curve fit; CHO-K1 cells, 90 min incubation; read-out: β-Arr pEC50 (converted)
T1 construct: host or cells: CHO-K1
From the text: This in vitro assay tests compounds' ability to activate intracellular signaling via 3-Arrestin recruitment to heterologously expressed human GPR120. This functional cellular assay utilizes enzyme fragment complementation with β-galactosidlase (β-gal) as a functional reporter (DiscoveRx PathlHunter® β-Arrestin assay platform). The human (GPR120 receptor (GenBank accession Number NM_181745) was fused in frame with the small enzyme fragment ProLink™ and co-expressed in CHO-K1 cells with a fusion protein of β-Arrestin 2 and the larger, N-terminal deletion mutant of β-gal. Activation by a GPR120 agonist stimulates binding of β-arrestin to the ProLink-tagged GPCR and forces complementation of the two enzyme fragments, resulting in the formation of an active β-gal enzyme. This interaction leads to an increase in enzyme activity that can be measured using chemiluminescent PathHunter® Detection Reagents.
One day prior to the assay, cells were seeded in a total volume of 20 μl of growth medium into white walled 384-well microplates and incubated at 37° C./5% CO2 overnight. On the day of the assay, growth medium was removed and 20 μl assay buffer (HBSS+10 mM HEPES+0.1% heat-inactivated BSA) were added to each well.
Test compounds were dissolved in 100% DMSO to a concentration of 10 mM to provide stock solutions. Serial dilutions were performed from stock solutions into assay buffer to obtain intermediate concentrations of 5-fold higher than the concentrations to be tested. 5 μl of the 5× compound solutions were added to the cells and the assay plates were incubated at 37° C. for 90 minutes. The final concentration of compounds tested in the assay ranged from 1.5 nM to 100 μM. Following incubation, 12.5 μl of PathHunter® detection reagent were added to each well, and plates were incubated at room temperature for 60 minutes. Chemiluminescence was read using an EnVision plate reader (PerkinElmer), raw data were expressed as relative light units (RLU).
(§1) To determine agonist potencies (EC50 values), non-linear least-squares curve fits of the raw data (RLU) were performed in the GraphPad Prism software package, using the 4-parameter model with variable Hill Slope:
Reported below in Table 1 are pEC50 values (pEC50=−log(EC50) from curve fit) for compounds of Formula I in this assay, β-Arr pEC50 Alternatively, percent activation at a single concentration is reported.
T1 sequence (Q5NUL3 1-377 isoform Q5NUL3-1): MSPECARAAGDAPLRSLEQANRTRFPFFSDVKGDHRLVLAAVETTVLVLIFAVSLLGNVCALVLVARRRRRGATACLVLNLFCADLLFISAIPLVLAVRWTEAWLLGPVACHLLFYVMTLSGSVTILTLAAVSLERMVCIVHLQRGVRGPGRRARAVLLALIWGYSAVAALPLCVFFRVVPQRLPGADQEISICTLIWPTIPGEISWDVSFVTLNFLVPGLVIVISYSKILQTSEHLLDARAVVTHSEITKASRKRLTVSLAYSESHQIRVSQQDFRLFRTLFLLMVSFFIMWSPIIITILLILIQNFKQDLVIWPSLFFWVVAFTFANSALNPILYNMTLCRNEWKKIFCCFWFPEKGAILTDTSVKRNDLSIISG
T1 sequence (P32121 whole entry partner): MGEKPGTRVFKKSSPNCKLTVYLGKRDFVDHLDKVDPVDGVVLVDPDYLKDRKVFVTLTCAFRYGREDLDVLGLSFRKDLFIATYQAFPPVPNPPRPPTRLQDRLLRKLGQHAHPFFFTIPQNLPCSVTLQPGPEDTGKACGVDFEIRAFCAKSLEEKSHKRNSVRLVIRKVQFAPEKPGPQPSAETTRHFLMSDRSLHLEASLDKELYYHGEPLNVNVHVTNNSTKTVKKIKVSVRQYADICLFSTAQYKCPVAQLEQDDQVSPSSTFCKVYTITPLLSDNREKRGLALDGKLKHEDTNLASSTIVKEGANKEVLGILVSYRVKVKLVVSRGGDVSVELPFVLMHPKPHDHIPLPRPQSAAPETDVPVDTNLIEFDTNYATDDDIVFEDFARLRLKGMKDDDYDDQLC

human GPR120 [2] = biological target: T2, human GPR120 (Homo sapiens, UniProt Q5NUL3); test: Human GPR120 Calcium-Release Assay (aequorin luminescence, CHO-K1 cells); format: cell-based; conditions: pEC50=−log(EC50) from curve fit; short variant of human GPR120 in CHO-K1 with Gα16 and apoaequorin; read-out: Ca2+ pEC50 (converted)
T2 construct: expressed in transfected cells; host or cells: CHO-K1 coexpressing Gα16 and mitochondrial apoaequorin
T2 sequence (Q5NUL3 1-361): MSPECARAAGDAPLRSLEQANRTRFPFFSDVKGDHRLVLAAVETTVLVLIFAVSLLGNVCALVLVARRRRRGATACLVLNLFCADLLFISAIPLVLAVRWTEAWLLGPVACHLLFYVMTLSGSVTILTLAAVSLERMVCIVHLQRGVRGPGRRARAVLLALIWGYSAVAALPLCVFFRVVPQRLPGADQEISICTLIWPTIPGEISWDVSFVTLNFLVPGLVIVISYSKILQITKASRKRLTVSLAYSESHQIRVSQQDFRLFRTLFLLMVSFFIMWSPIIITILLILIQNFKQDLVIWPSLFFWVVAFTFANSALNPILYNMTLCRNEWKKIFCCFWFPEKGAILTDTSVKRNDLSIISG
From the text: This in vitro assay tests compounds' ability to activate heterologously expressed human GPR120 via G-protein coupling leading to generation of inositol 1,4,5-triphosphate and mobilization of intracellular calcium. This functional cellular assay is based on the luminescence of mitochondrial aequorin following intracellular Ca^2+ release. Aequorin is a photoprotein isolated from the jellyfish Aequorea victoria. The active protein is formed in the presence of molecular oxygen from apoaequorin and its cofactor coelenterazine. Binding of Ca^2+ to the active protein induces a conformational change, resulting in oxidation of coelenterazine and subsequent blue luminescence.
The short variant of the human GPR120 receptor (GenBank accession Number AAI01176) was stably expressed in a CHO-K1 cell line coexpressing Gα16 and mitochondrial apoaequorin.
Cells were grown to mid-log phase in culture media without antibiotics, were detached with PBS/EDTA, centrifuged and resuspended in assay buffer (DMEM-F12 medium with 15 mM HEPES pH 7.0 and 0.1% protease free BSA) at a concentration of 10^6 cells/mL. Cells were incubated at room temperature for at least 4 hours with 5 μM coelenterazine h.
Test compounds were dissolved in 100% DMSO to a concentration of 20 mM to provide stock solutions. Serial dilutions were performed from stock solutions in 100% DMSO to obtain intermediate concentrations 200-fold higher than the concentrations to be tested. Each sample was diluted 100-fold into assay buffer. 50 μl of these compound solutions were dispensed into each well of 96-well assay plates. The final concentration of compounds tested in the assay ranged from 5 nM to 100 μM. α-Linolenic acid was used as a reference compound. Each test was performed in duplicate.
To start the assay, 50 μl of cell suspension were added to each well of the assay plate. The resulting luminescence was recorded using a Hamamatsu Functional Drug Screening System 6000 (FDSS 6000), and raw data were expressed as relative light units (RLU).
as §1
Reported below in Table 1 are pEC50 values (pEC50=−log(EC50) from curve fit) for representative compounds of Formula I in this assay, Ca2+pEC50.

Compound | EC50 (human GPR120 [1]) | EC50 (human GPR120 [2])
O=S1(=O)c2ccccc2CN1c1cc(C(F)(F)F)nc(Oc2ccc(Cl)cc2)n1 [Compound 97] | 0.631 µM | 1 µM
O=S1(=O)c2ccccc2CN1c1cc(C(F)(F)F)nc(Oc2ccccc2)n1 [Compound 98] | 0.794 µM | 2.51 µM
COc1cc(N2Cc3ccccc3S2(=O)=O)nc(Oc2ccc(F)cc2)n1 [Compound 99] | 0.501 µM | 0.158 µM
COc1cc(Oc2ccc(F)cc2)nc(N2Cc3ccccc3S2(=O)=O)n1 [Compound 101] | 0.398 µM | > 0.1 µM
Cc1cc(N2Cc3ccccc3S2(=O)=O)nc(Oc2ccc(F)cc2)n1 [Compound 106] | 1 µM | 0.2 µM
O=S1(=O)c2ccccc2CN1c1nccc(Oc2cccnc2)n1 [Compound 114] | 12.6 µM | 15.8 µM
O=S1(=O)c2ccccc2CN1c1cccc(Oc2cccnc2)n1 [Compound 121] | 1.58 µM | 0.2 µM
O=C1c2ccccc2CN1c1cccc(Oc2cccnc2)n1 [Compound 122] | > 10 µM | 0.501 µM
O=S1(=O)c2ccccc2CN1c1cccc(Oc2cccc(Cl)c2)n1 [Compound 123] | > 31.6 µM | > 100 µM
Cc1cc(OC2CCC2)nc(N2Cc3ccccc3S2(=O)=O)c1 [Compound 128] | 0.0398 µM | 0.0794 µM
Cc1cc(Oc2ccc(Cl)cc2)nc(N2Cc3ccccc3S2(=O)=O)c1 [Compound 131] | 0.158 µM | 0.316 µM
O=S1(=O)c2ccccc2CN1c1cncc(Oc2cccnc2)n1 [Compound 142] | 39.8 µM | 1.26 µM
